Data: patent US20230241014A1, “MEK-INHIBITORS FOR THE TREATMENT OR PREVENTION OF CORONAVIRUS INFECTIONS AND/OR COVID-19 CYTOKINE STORM” (priority 2020, published 2023)
Read-outs that look alike come from different tables or passages of the source.

Experiments:
[1] = test system: SARS-CoV-2; type: cell-based; conditions: CaCo-2 cells infected SARS-CoV-2 (MOI 0.1); 0.098-100 μM, 24 h
[2] = test system: pERK1/2; test: Wes analysis of ERK phosphorylation in SARS-CoV-2 infected Caco-2 cells; type: cell-based, Homo sapiens; conditions: CaCo-2 cells infected SARS-CoV-2 (MOI 0.1); 0.098-100 μM, 24 h
Method: For the Virus yield reduction assay a 24-well plate (Greiner Bio-One, Cat. 662-160) with 95% confluent Caco-2 cells was prepared. The wells were washed once with Caco-2 infection medium DMEM (Gibco, Cat. 41965-039) supplemented with 5% FCS (Capricorn, Cat. FBS-12A), 1% Penicillin/Streptomycin, (Sigma Aldrich, Cat. P4333) and 1% Non-essential amino acids (NEAA) (Merck, Cat. K 0293). Cells were infected with SARS-CoV-2 (MOI 0.1) for 1 h in 200 μL Caco-2 infection medium per well. Afterwards the Virus inoculum was removed completely and cells were treated with 1 mL per well with different concentrations of ATR-002 (100 μM, 50 μM, 25 μM, 12.5 μM, 6.25 μM, 3.125 μM, 1.56 μM, 0.78 μM, 0.39 μM, 0.195 μM, 0.098 μM, 0 μM) in Caco-2 infection medium with 1% DMSO for 24 h at 37° C., 5% CO2. […]
Wes™ capillary electrophoresis by ProteinSimple® was used to identify and quantify pERK1/2, ERK1/2 and SARS-CoV-2 Nucleoprotein. Cell lysates were diluted with 0.1×Sample Buffer (ProteinSimple, Abingdon, Oxford, UK) to approximately 50 ng total protein per lane and analyzed using specific antibodies. […] The anti-rabbit secondary antibody (ProteinSimple, Cat. DM-001) and anti-mouse secondary antibody (ProteinSimple, Cat. DM-002) and all other reagents for WES analysis were also purchased from ProteinSimple and were ready to use.

[3] = test system: SARS-CoV-2 viral gene RdRP; type: cell-based; conditions: Vero cells, MOI 0.01, 50 μM, 24, 36 and 48 hpi
[4] = test system: SARS-CoV-2 (FI); type: cell-based
[5] = test system: MCP-1; test: MCP-1 in SARS-CoV-2 infected CaCo2 cells; type: cell-based, Homo sapiens; conditions: high amount necessary
[6] = test system: IL-6, IL-8, MCP-1, IP-10 and CCL5 mRNA; test: Pro-inflammatory cytokine mRNA in SARS-CoV-2 infected Calu-3 cells (real-time PCR); type: cell-based, Homo sapiens; conditions: Calu-3, SARS-CoV-2 (FI) MOI 0.01, increasing amounts
[7] = test system: LPS induced PMBC cells; test: LPS induced cytokine expression in PBMC; type: cell-based, human; conditions: 10 μg/ml
Description: In order to check what concentration of ATR-002 would be necessary for cytokine reduction, the amounts of IP10, TNF-alpha and MCP-1 expression was studied in LPS induced PMBC cells after ATR-002 treatment.

[8] = human, in vivo
Method: Specifically, as described previously, in Phase I clinical studies PD-0184264 was administered with a starting dose of 100 mg and up to three escalation steps in seven arms, following a single ascending dose/multiple ascending dose (SAD/MAD) regime. Administration scheme was one dose PD-0184264, escalating 100 mg to 900 mg (SAD), followed by seven doses PD-0184264, escalating 100 mg to 600 mg QD over seven days (MAD).

[9] = test system: SARS-CoV-2 (FI); type: cell-based; conditions: primary human ALI cultures, MOI 1.0, 50 μM and 100 μM, three cultures
[10] = test system: VSV pseudotype virus carrying the SARS-CoV-2 Spike protein; type: cell-based
[11] = test system: SARS-CoV-2; test: SARS-CoV-2 Syrian hamster infection model; conditions: for reduction of progeny virus in throat swabs (TCID50): 100 mg/kg then 75 mg/kg once daily oral; for reduction of progeny virus in throat swabs (TCID50) / reduction of viral load in throat swabs (PCR): day 3 p.i.; for tolerability, weight loss, adverse effects: compared to vehicle
[12] = treatment start 4 hours p.i., day 4 p.i.
[13] = treatment start 24 hours p.i., day 4 p.i.

O=C(O)c1ccc(F)c(F)c1Nc1ccc(I)cc1Cl [ATR-002, 2-(2-chloro-4-iodophenylamino)-N-3,4-difluoro benzoic acid]
inhibition of SARS-CoV-2 (virus titer) [1]: seen at concentrations of 50 and 100 μM
inhibition of nucleocapsid protein (viral marker) [1]: seen at concentrations of 50 and 100 μM
inhibition of ERK (phosphorylation) [2]: seen at concentrations of 50 and 100 μM
SARS-CoV-2 viral gene RdRP genome copies [3]: confirmed
duration of the effect on progeny viral particles ([4]; Calu-3, MOI 0.01, 10-150 μM): maintained over the total infection time of 72 hours
production of progeny viral particles ([4]; Calu-3, MOI 0.01, 10-150 μM, 24, 48, 72 h): concentration dependent decrease
cell damage of infected cells (light microscopy) ([4]; Calu-3 infected with SARS-CoV-2): did not show the characteristic cell damage
MCP-1 expression [5]: able to reduce MCP-1 expression
expression of pro-inflammatory cytokines (IL-6, IL-8, MCP-1, IP-10, CCL5 mRNA) [6]: reduce the expression of pro-inflammatory cytokines
IP10 expression ([7]; LPS induced PBMC): reduced
TNF-alpha expression ([7]; LPS induced PBMC): reduced
inhibition at 10 µg/mL ([7]; PBMC, human PBMCs, read-out: inhibition of LPS induced MCP-1): > 90%
pharmacokinetic profile [8]: supports the intended once-daily regime
pharmacokinetics exposure, blood levels [8]: maintenance of clinically relevant blood levels
safety of each dose cohort (Safety Review Committee) [8]: considered to be safe
production of progeny viral particles [9]: completely blocked the production of progeny viral particles
internalization of the VSV pseudotype virus (GFP positive cells) [10]: reduction in the internalization
reduction of progeny virus in throat swabs (TCID50) ([11]; treatment start 4 hours p.i.): 1.1 log 10
tolerability, weight loss, adverse effects ([11]; treatment start 4 hours p.i.): well tolerated without significant weight loss
reduction of viral load in throat swabs (PCR) ([11]; treatment start 4 hours p.i.): 1.1 log 10
affected lung tissue (lung lesions, estimated percentage) [11, 12]: significantly reduced affected lung tissue
reduction in infectious virus titers (TCID50/g tissue) in the nasal turbinates [11, 12]: 1.3 log 10
reduction of viral load in the nasal turbinates (PCR) [11, 12]: 1.1 log 10
reduction of progeny virus in throat swabs (TCID50) ([11]; treatment start 24 hours p.i.): 1.3 log 10
tolerability, weight loss, adverse effects ([11]; treatment start 24 hours p.i.): well tolerated without significant weight loss
reduction of viral load in throat swabs (PCR) ([11]; treatment start 24 hours p.i.): 1.2 log 10
affected lung tissue (lung lesions, estimated percentage) [11, 13]: significantly reduced affected lung tissue
infectious virus titers in the nasal turbinates [11, 13]: not the treatment started 24 hours p.i., significantly reduced infectious virus titers
